The text below walks through data of patent publication US8865704B2, “Wnt pathway antagonists” (Siena Biotech S.p.A., priority 2009, dated 2014).

For one assay, the system named is DBTRG cells. In words: Soft agar anchorage independent assay. The format is cell-based. To be noted: 504 h, colonies scored 3 weeks later, read-out: 1050 value in the soft agar assay. The method, then: The pharmacological activity of the compounds of the invention may be tested in vitro for growth inhibition against tumour cell lines. Such cell lines may, for example be representative of glioblastoma (such as DBTRG-05MG), or colorectal (for example DLD-1, HCT116) cancer. The different genetic background of the cancer cell will facilitate to understand to which level of the pathway the compounds work. If the cells harbour a truncated APC allele, the destruction complex activity is affected; if cells carry a gain of function mutation in the β-catenin gene, which prevents β-catenin protein degradation, this leads to constitutive activation of downstream genes. There are many assays available for testing the growth inhibition.
Soft Agar Anchorage Independent Assay
DBTRG cells were seeded into a 24-well format in the presence of carrier alone or compound (0.6% DMSO (v/v)). Each well is composed of two agar layers: the bottom layer consists of 0.6% Agar while the top has 0.35% Agar plus cells and compound. Cells (2500 per well) were incubated with 7 points dilution compound the day of the plating and the colonies were scored 3 weeks later after o/n staining with MTT solution. Imaging and counting of the colonies was done with the GelCount™ instrument (Oxford Optronix, UK). For IC50 determination the data were expressed as % of control, values were calculated using XLFit version 4.2, with a four parameters sigmoid function (XLFit model 205).

For the next assay, the system named is Wnt/β-catenin pathway. In words: Wnt reporter assay (TCF-Luciferase, Firefly) in DBTRG-05MG cells. Type of assay: cell-based. To be noted: Homo sapiens, 24 hours after compound addition. In outline: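 DBTRG-05MG cells carrying a 4×TCF-driven firefly luciferase reporter, kept under Zeocin or Zeocin plus Hygromicin selection. Compounds added 36 hours after plating at 8 points from 60 μM to 0.185 μM (0.6% DMSO), triplicate, for 24 hours. Firefly and Renilla luminescence each expressed as % of control; IC50 from four-parameter sigmoid fit.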

For `COc1ccc2[nH]c(=O)n(C[C@H]3CC[C@H](C(=O)N4CCN(C(=O)C(C)C)CC4)CC3)c(=O)c2c1` [Example 3, 3-[trans-4-(4-Isobutyryl-piperazine-1-carbonyl)-cyclohexylmethyl]-6-methoxy-1H-quinazoline-2,4-dione], the values for the IC50 in the assay with DBTRG cells and in the assay on Wnt/β-catenin pathway were 0.9 to 30 µM and 0.3 to 30 µM, respectively.

`CCCC(=O)N1CCN(C(=O)[C@H]2CC[C@H](Cn3c(=O)c4ccccc4n(C)c3=O)CC2)CC1` [Example 5, 3-[trans-4-(4-Butyryl-piperazine-1-carbonyl)-cyclohexylmethyl]-1-methyl-1H-quinazoline-2,4-dione]: the IC50 in the assay on DBTRG cells lay in the range of 0.9 to 30 µM; in the assay with Wnt/β-catenin pathway, 0.3 to 30 µM.

As for `Cn1c(=O)n(C[C@H]2CC[C@H](C(=O)N3CCOCC3)CC2)c2cc(C(F)(F)F)ccc21` [Example 10, 1-Methyl-3-[trans-4-(morpholine-4-carbonyl)-cyclohexylmethyl]-5-trifluoromethyl-1,3-dihydro-benzoimidazol-2-one], the IC50 in the assay on DBTRG cells was in the range of 0.9 to 30 µM; with Wnt/β-catenin pathway, 0.3 to 30 µM.

Turning to `O=C(C1CCC(Cn2c(=O)[nH]c3ccccc3c2=O)CC1)N1CCN(c2ccccc2)CC1` (centres unmarked) [Example 18], the IC50 in the assay with DBTRG cells lay in the range of 0.9 to 30 µM; with Wnt/β-catenin pathway it was 0.3 to 30 µM.

Consider `O=c1[nH]c2ccccc2c(=O)n1C[C@H]1CC[C@H](C(=O)N2CCN(c3ccc(F)cc3)CC2)CC1` [Example 20], for which the IC50 with DBTRG cells lay within 0.9 to 30 µM; in the assay on Wnt/β-catenin pathway, 0.3 to 30 µM.

As for `COc1ccccc1N1CCN(C(=O)[C@H]2CC[C@H](Cn3c(=O)[nH]c4ccccc4c3=O)CC2)CC1` [Example 21], the IC50 in the assay on DBTRG cells was 0.9 to 30 µM; in the assay with Wnt/β-catenin pathway it was 0.3 to 30 µM.

`O=c1[nH]c2ccc(Cl)cc2c(=O)n1C[C@H]1CC[C@H](C(=O)N2CCN(c3ccccc3)CC2)CC1` [Example 26]: the figures for the IC50 in the assay on DBTRG cells and with Wnt/β-catenin pathway were 0.9 to 30 µM and 0.3 to 30 µM, respectively.

In the case of `CC(=O)N1CCN(C(=O)[C@H]2CC[C@H](Cn3c(=O)[nH]c4ccc(Cl)cc4c3=O)CC2)CC1` [Example 27], the IC50 was in the range of 0.9 to 30 µM in the assay on DBTRG cells and 0.3 to 30 µM with Wnt/β-catenin pathway.

Turning to `O=C(C1CCCC1)N1CCN(C(=O)[C@H]2CC[C@H](Cn3c(=O)[nH]c4ccccc4c3=O)CC2)CC1` [Example 29], the IC50 in the assay on DBTRG cells fell in the range of 0.9 to 30 µM; with Wnt/β-catenin pathway it was 0.3 to 30 µM.

Take `O=C(c1cccs1)N1CCN(C(=O)[C@H]2CC[C@H](Cn3c(=O)[nH]c4ccccc4c3=O)CC2)CC1` [Example 37]: the values for the IC50 in the assay with DBTRG cells and in the assay with Wnt/β-catenin pathway were 0.9 to 30 µM and 0.3 to 30 µM, respectively.

As to `O=C(C1CCC(Cn2c(=O)[nH]c3ccccc3c2=O)CC1)N1CCN(C(=O)C2CC2)CC1` (centres unmarked) [Example 47], the values for the IC50 in the assay with DBTRG cells and in the assay with Wnt/β-catenin pathway were 0.9 to 30 µM and 0.3 to 30 µM, respectively.

With `O=C(c1ccco1)N1CCN(C(=O)C2CCC(Cn3c(=O)[nH]c4ccccc4c3=O)CC2)CC1` (centres unmarked) [Example 48], the results for the IC50 in the assay on DBTRG cells and in the assay on Wnt/β-catenin pathway were 0.9 to 30 µM and 0.3 to 30 µM, respectively.

As to `Cn1c(=O)n(C[C@H]2CC[C@H](C(=O)N3CCN(C(=O)C4CC4)CC3)CC2)c(=O)c2ccccc21` [Example 56], the IC50 in the assay with DBTRG cells was 0.9 to 30 µM; in the assay with Wnt/β-catenin pathway, 0.3 to 30 µM.

For `O=c1[nH]c2ccccc2c(=O)n1C[C@H]1CC[C@H](C(=O)N2CCN(c3cnccn3)CC2)CC1` [Example 57], the IC50 is 0.9 to 30 µM in the assay with DBTRG cells and 0.3 to 30 µM in the assay with Wnt/β-catenin pathway.

`CC(C)C(=O)N1CCN(C(=O)[C@H]2CC[C@H](Cn3c(=O)[nH]c4ccccc43)CC2)CC1` [Example 58]: the IC50 is 0.9 to 30 µM in the assay with DBTRG cells and 0.3 to 30 µM in the assay with Wnt/β-catenin pathway.

Turning to `O=C(CC1CCCCC1)N1CCN(C(=O)[C@H]2CC[C@H](Cn3c(=O)[nH]c4ccccc4c3=O)CC2)CC1` [Example 59], the IC50 was 0.9 to 30 µM with DBTRG cells and 0.3 to 30 µM in the assay on Wnt/β-catenin pathway.

With `O=C(C1CCC1)N1CCN(C(=O)[C@H]2CC[C@H](Cn3c(=O)[nH]c4ccccc4c3=O)CC2)CC1` [Example 60], the results for the IC50 in the assay with DBTRG cells and in the assay with Wnt/β-catenin pathway were 0.9 to 30 µM and 0.3 to 30 µM, respectively.

Take `COCC(=O)N1CCN(C(=O)[C@H]2CC[C@H](Cn3c(=O)c4cc(OC)ccc4n(C)c3=O)CC2)CC1` [Example 66]: the IC50 in the assay with DBTRG cells lay within 0.9 to 30 µM; in the assay with Wnt/β-catenin pathway, 0.3 to 30 µM.

Take `COc1ccc2c(c1)CN(C[C@H]1CC[C@H](C(=O)N3CCN(C(=O)C4CC4)CC3)CC1)C(=O)N2` [Example 71]: the values for the IC50 in the assay on DBTRG cells and in the assay with Wnt/β-catenin pathway were 0.9 to 30 µM and 0.3 to 30 µM, respectively.

As to `COc1ccc2[nH]c(=O)n(C[C@H]3CC[C@H](C(=O)N4CCN(C(=O)C5CC5)CC4)CC3)c(=O)c2c1` [Example 75], the figures for the IC50 in the assay with DBTRG cells and in the assay with Wnt/β-catenin pathway were 0.9 to 30 µM and 0.3 to 30 µM, respectively.

For the compound `COCC(=O)N1CCN(C(=O)[C@H]2CC[C@H](Cn3c(=O)[nH]c4ccc(OC)cc4c3=O)CC2)CC1` [Example 77], the IC50 in the assay on DBTRG cells lay in the range of 0.9 to 30 µM; in the assay on Wnt/β-catenin pathway it was 0.3 to 30 µM.

As for `COc1ccc2c(c1)c(=O)n(C[C@H]1CC[C@H](C(=O)N3CCN(C(=O)C4CC4)CC3)CC1)c(=O)n2C` [Example 78], the IC50 fell in the range of 0.9 to 30 µM in the assay with DBTRG cells and 0.3 to 30 µM in the assay on Wnt/β-catenin pathway.

`O=C(C1CC1)N1CCN(C(=O)[C@H]2CC[C@H](Cn3c(=O)c4ccccc4n(CCF)c3=O)CC2)CC1` [Example 79]: the values for the IC50 with DBTRG cells and in the assay with Wnt/β-catenin pathway were 0.9 to 30 µM and 0.3 to 30 µM, respectively.

On to `Cn1c(=O)n(C[C@H]2CC[C@H](C(=O)N3CCN(C(=O)C4CC4)CC3)CC2)c2ccccc21` [Example 80], for which the IC50 in the assay with DBTRG cells fell in the range of 0.9 to 30 µM; in the assay on Wnt/β-catenin pathway it was 0.3 to 30 µM.

For `COc1ccc2c(c1)c(=O)n(C[C@H]1CC[C@H](C(=O)N3CCN(C)C(=O)C3)CC1)c(=O)n2C` [Example 92], the IC50 lay within 0.9 to 30 µM with DBTRG cells and 0.3 to 30 µM with Wnt/β-catenin pathway.

Take `COc1ccc2[nH]c(=O)n(C[C@H]3CC[C@H](C(=O)N4CCN(C(C)=O)CC4)CC3)c(=O)c2c1` [Example 99]: the IC50 with DBTRG cells was 0.9 to 30 µM; with Wnt/β-catenin pathway, 0.3 to 30 µM.

Regarding `COc1ccc2[nH]c(=O)n(C[C@H]3CC[C@H](C(=O)N4CCN(C(=O)[C@H]5CCCO5)CC4)CC3)c(=O)c2c1` [Example 109], the IC50 lay in the range of 0.9 to 30 µM in the assay on DBTRG cells and 0.3 to 30 µM with Wnt/β-catenin pathway.

Regarding `COC(=O)N1CCN(C(=O)[C@H]2CC[C@H](Cn3c(=O)[nH]c4ccc(OC)cc4c3=O)CC2)CC1` [Example 116], the IC50 in the assay on DBTRG cells lay in the range of 0.9 to 30 µM; in the assay with Wnt/β-catenin pathway, 0.3 to 30 µM.

As for `COc1ccc2c(c1)c(=O)n(C[C@H]1CC[C@H](C(=O)N3CCN(C(=O)c4cncn4C)CC3)CC1)c(=O)n2C` [Example 122], the IC50 lay within 0.9 to 30 µM with DBTRG cells and 0.3 to 30 µM in the assay on Wnt/β-catenin pathway.

Consider `COc1ccc2c(c1)n(C[C@H]1CC[C@H](C(=O)N3CCN(C(=O)C4CC4)CC3)CC1)c(=O)n2C` [Example 135], for which the IC50 with DBTRG cells lay in the range of 0.9 to 30 µM; in the assay on Wnt/β-catenin pathway, 0.3 to 30 µM.

Regarding `COc1ccc2c(c1)c(=O)n(C[C@H]1CC[C@H](C(=O)N3CCN(C(C)=O)CC3)CC1)c(=O)n2C` [Example 136], the IC50 lay within 0.9 to 30 µM in the assay with DBTRG cells and 0.3 to 30 µM in the assay with Wnt/β-catenin pathway.

As for `COc1ccc2c(c1)c(=O)n(C[C@H]1CC[C@H](C(=O)N3CCN(C(=O)c4ccno4)CC3)CC1)c(=O)n2C` [Example 146], the IC50 in the assay with DBTRG cells lay within 0.9 to 30 µM; in the assay with Wnt/β-catenin pathway, 0.3 to 30 µM.

With `Cc1ccc2c(n1)n(C[C@H]1CC[C@H](C(=O)N3CCN(C(=O)C4CC4)CC3)CC1)c(=O)n2C` [Example 169], the results for the IC50 in the assay with DBTRG cells and in the assay with Wnt/β-catenin pathway were 0.9 to 30 µM and 0.3 to 30 µM, respectively.

`COC(=O)N1CCN(C(=O)[C@H]2CC[C@H](Cn3c(=O)c4cc(OC)ccc4n(C)c3=O)CC2)CC1` [Example 175]: the IC50 was 0.9 to 30 µM in the assay on DBTRG cells and 0.3 to 30 µM with Wnt/β-catenin pathway.
